pIC50, pKd: −log10 of the molar value.
Legend:
[1] = target: SOS1:KRAS (G12C) interaction (Homo sapiens (Human), UniProt Q07889); assay: SOS1 KRas(G12C) FRET Assay; format: binding; conditions: 0.5 nM His10-SOS1 (res. 564-1049), 2.5 nM GST-KRAS G12C (res. 1-169), 2 hrs at RT
Outline: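 GST-KRAS G12C (res. 1-169) at 2.5 nM and His10-SOS1 (res. 564-1049) at 0.5 nM, final, in PBS with 0.1% BSA, 5 mM MgCl2, 100 mM KF, 5 mM DTT and 0.5% DMSO. After 2 h at RT, FRET read at 665/615 nm and normalized to DMSO and no-SOS1 controls. IC50 by non-linear regression.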

human SOS1 = human SOS1 (Homo sapiens (Human), UniProt Q07889); assay: Surface Plasmon Resonance (SPR) SOS1 Binding Assay; conditions: biotinylated SOS1 (res. 564-1049), Biacore 8K, 25° C., kinetic or steady state fit, 1:1 binding; read-out: hSOS1 KD
Sequence of human SOS1 (Q07889 564-1049): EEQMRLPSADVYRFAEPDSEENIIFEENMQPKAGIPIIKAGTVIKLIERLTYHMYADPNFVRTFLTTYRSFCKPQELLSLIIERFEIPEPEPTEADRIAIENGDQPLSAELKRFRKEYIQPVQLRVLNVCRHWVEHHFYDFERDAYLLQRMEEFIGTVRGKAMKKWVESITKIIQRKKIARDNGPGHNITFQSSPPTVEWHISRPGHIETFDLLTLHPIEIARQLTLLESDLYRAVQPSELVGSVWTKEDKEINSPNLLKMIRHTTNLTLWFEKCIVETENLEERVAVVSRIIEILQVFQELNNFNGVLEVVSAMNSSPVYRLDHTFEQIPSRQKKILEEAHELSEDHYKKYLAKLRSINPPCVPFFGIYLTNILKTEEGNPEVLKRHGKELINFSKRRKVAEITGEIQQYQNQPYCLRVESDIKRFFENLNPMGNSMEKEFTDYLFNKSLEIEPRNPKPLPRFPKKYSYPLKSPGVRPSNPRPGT
Outline: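 Biotinylated Avi-tagged human SOS1 (res. 564-1049) captured on streptavidin chip (~3,000 RU); compounds injected 60 s, dissociation 600 s, at 25° C in Tris pH 8.0 buffer with 5% DMSO. Reference- and blank-subtracted; KD from kinetic or steady-state 1:1 binding fit.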

Sequence of SOS1:KRAS (G12C) interaction (Q07889 564-1049, stated change not applied): as the sequence (Q07889 564-1049) above

Compound | pIC50 [1] | pKd (human SOS1)
C[C@@H](NC(=O)c1cn(C2(C(F)F)CC2)c(=O)cc1N[C@@H]1CCNC[C@@H]1F)c1cccc(C(F)F)c1F (single isomer, unassigned) [Example 69] | 7.76 | 7.89
C[C@@H](NC(=O)c1cn(C2(C(F)F)CCC2)c(=O)cc1N[C@H]1[C@@H]2CN(C)C[C@@H]21)c1cccc(C(F)F)c1F [Example 131, N-((R)-1-(3-(difluoromethyl)-2-fluorophenyl)ethyl)-1-(1-(difluoromethyl)cyclobuty 1)-4-(((1R,5S,6s)-3-methyl-3-azabicyclo[3.1.0]hexan-6-yl)amino)-6-oxo-1,6-dihydropyridine-3-carboxamide] | 7.66 | 7.77
Cc1c([C@@H](C)NC(=O)c2cn(C3CCOCC3)c(=O)cc2NCCN(C)C)cccc1C(F)(F)F [Example 2, (R)-4-((2-(dimethylamino)ethyl)amino)-N-(1-(2-methyl-3-(trifluoromethyl)phenyl)ethyl)-6-oxo-1-(tetrahydro-2H-pyran-4-yl)-1,6-dihydropyridine-3-carboxamide] | 7.22 | 7.57
C[C@@H](NC(=O)c1cn(C23CC(C)(C2)C3)c(=O)cc1N[C@H]1[C@@H]2CN(C)C[C@@H]21)c1cccc(C(F)F)c1F [Example 98, N-((R)-1-(3-(difluoromethyl)-2-fluorophenyl)ethyl)-4-(((1R,5S,6s)-3-methyl-3-azabicyclo[3.1.0]hexan-6-yl)amino)-1-(3-methylbicyclo[1.1.1]pentan-1-yl)-6-oxo-1,6-dihydropyridine-3-carboxamide] | 7.87 | 8.22
C[C@@H](NC(=O)c1cn([C@H]2C[C@@H](F)C2)c(=O)cc1N[C@H]1[C@@H]2CN(C)C[C@@H]21)c1cccc(C(F)F)c1F [Example 96, N-((R)-1-(3-(difluoromethyl)-2-fluorophenyl)ethyl)-1-((1s,3S)-3-fluorocyclobutyl)-4-(((1R,5S,6s)-3-methyl-3-azabicyclo[3.1.0]hexan-6-yl)amino)-6-oxo-1,6-dihydropyridine-3-carboxamide] | 7.80 | 8.05
Cc1c([C@@H](C)NC(=O)c2cn(C3CCOCC3)c(=O)cc2N[C@H]2CCCN(C)C2)cccc1C(F)(F)F [Example 6, N-((R)-1-(2-methyl-3-(trifluoromethyl)phenyl)ethyl)-4-(((S)-1-methylpiperidin-3-yl)amino)-6-oxo-1-(tetrahydro-2H-pyran-4-yl)-1,6-dihydropyridine-3-carboxamide] | 7.25 | 7.52
C[C@@H](NC(=O)c1cn([C@@H]2CCOC[C@H]2F)c(=O)cc1N[C@H]1[C@@H]2CN(C)C[C@@H]21)c1cccc(C(F)F)c1F [Example 128, N-((R)-1-(3-(difluoromethyl)-2-fluorophenyl)ethyl)-1-((3S,4R)-3-fluorotetrahydro-2H-pyran-4-yl)-4-(((1R,5S,6s)-3-methyl-3-azabicyclo[3.1.0]hexan-6-yl)amino)-6-oxo-1,6-dihydropyridine-3-carboxamide] | 8.09 | 8.52
C[C@@H](NC(=O)c1cn(C2CC3(CC3)C2)c(=O)cc1N[C@H]1[C@@H]2CN(C)C[C@@H]21)c1cccc(C(F)F)c1F [Example 107, N-((R)-1-(3-(difluoromethyl)-2-fluorophenyl)ethyl)-4-(((1R,5S,6s)-3-methyl-3-azabicyclo[3.1.0]hexan-6-yl)amino)-6-oxo-1-(spiro[2.3]hexan-5-yl)-1,6-dihydropyridine-3-carboxamide] | 8.08 | 8.52
C[C@@H](NC(=O)c1cn(C2CC3(C2)CC(F)(F)C3)c(=O)cc1N[C@H]1CCN(C)C[C@H]1F)c1cccc(C(F)F)c1F [Example 127, N-((R)-1-(3-(difluoromethyl)-2-fluorophenyl)ethyl)-1-(6,6-difluorospiro[3 .3]heptan-2-yl)-4-(((3R,4S)-3-fluoro-1-methylpiperidin-4-yl)amino)-6-oxo-1,6-dihydropyridine-3-carboxamide] | 8.52 | 8.52
Cc1c([C@@H](C)NC(=O)c2cn(C3CCOCC3)c(=O)cc2N[C@H]2[C@@H]3CN(C)C[C@@H]32)cccc1C(F)(F)F [Example 26, N-((R)-1-(2-methyl-3-(trifluoromethyl)phenyl)ethyl)-4-(((1R,5S,6s)-3-methyl-3-azabicyclo[3.1.0]hexan-6-yl)amino)-6-oxo-1-(tetrahydro-2H-pyran-4-yl)-1,6-dihydropyridine-3-carboxamide] | 7.57 | 7.96
C[C@@H](NC(=O)c1cn(C23CC(C2)C3)c(=O)cc1N[C@H]1[C@@H]2CN(C)C[C@@H]21)c1cccc(C(F)F)c1F [Example 90, 1-(bicyclo[1.1.1]pentan-1-yl)-N-((R)-1-(3-(difluoromethyl)-2-fluorophenyl)ethyl)-4-(((1R,5S,6s)-3-methyl-3-azabicyclo[3.1.0]hexan-6-yl)amino)-6-oxo-1,6-dihydropyridine-3-carboxamide] | 7.87 | 8.05
CO[C@H]1CN(C)CC[C@H]1Nc1cc(=O)n(C2(C(F)F)CC2)cc1C(=O)N[C@H](C)c1cccc(C(F)F)c1F [Example 153, N-((R)-1-(3-(difluoromethyl)-2-fluorophenyl)ethyl)-1-(1-(difluoromethyl)cyclopropyl)-4-(((3S,4R)-3-methoxy-1-methylpiperidin-4-yl)amino)-6-oxo-1,6-dihydropyridine-3-carboxamide] | 7.23 | 7.60

— US20230348424A1, “HETEROCYCLIC COMPOUNDS AND METHODS OF USE” (Schrödinger, Inc., priority 2022, published 2023)
